Laboratory results taken from article PMC11079024, “Identification of a family of species-selective complex I inhibitors as potential anthelmintics” (Nature Communications, 2024).
“And” between values parts separate entries of the source, which are not always exact repeats. Identical values can stand only once. Like-named read-outs stand apart in the source and are kept apart here.

Key:
[1] = target: C. elegans (N2) complex I (NADH:ubiquinone oxidoreductase) (Caenorhabditis elegans, UniProt P24887+Q93873+Q94360); assay: biochemical; assay type: biochemical; details: for Log IC50 C. elegans complex I: log10 of IC50 in µM
Sequence of C. elegans (N2) complex I (NADH:ubiquinone oxidoreductase) (Q94360 17-199): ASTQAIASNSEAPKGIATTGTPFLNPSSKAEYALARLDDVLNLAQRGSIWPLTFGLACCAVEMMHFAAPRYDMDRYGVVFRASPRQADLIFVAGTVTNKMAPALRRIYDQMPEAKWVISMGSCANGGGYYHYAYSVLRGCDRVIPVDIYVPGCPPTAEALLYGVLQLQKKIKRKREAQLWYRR
Sequence of C. elegans (N2) complex I (NADH:ubiquinone oxidoreductase) (P24887 whole entry): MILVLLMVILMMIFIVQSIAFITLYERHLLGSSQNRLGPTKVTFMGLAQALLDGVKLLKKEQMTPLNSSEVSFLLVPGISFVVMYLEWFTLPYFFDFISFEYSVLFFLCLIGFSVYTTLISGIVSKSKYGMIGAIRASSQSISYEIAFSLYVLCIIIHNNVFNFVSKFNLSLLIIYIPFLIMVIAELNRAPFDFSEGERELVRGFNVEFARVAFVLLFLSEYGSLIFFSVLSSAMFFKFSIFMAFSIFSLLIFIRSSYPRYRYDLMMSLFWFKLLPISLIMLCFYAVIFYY
Sequence of C. elegans (N2) complex I (NADH:ubiquinone oxidoreductase) (Q93873 31-482): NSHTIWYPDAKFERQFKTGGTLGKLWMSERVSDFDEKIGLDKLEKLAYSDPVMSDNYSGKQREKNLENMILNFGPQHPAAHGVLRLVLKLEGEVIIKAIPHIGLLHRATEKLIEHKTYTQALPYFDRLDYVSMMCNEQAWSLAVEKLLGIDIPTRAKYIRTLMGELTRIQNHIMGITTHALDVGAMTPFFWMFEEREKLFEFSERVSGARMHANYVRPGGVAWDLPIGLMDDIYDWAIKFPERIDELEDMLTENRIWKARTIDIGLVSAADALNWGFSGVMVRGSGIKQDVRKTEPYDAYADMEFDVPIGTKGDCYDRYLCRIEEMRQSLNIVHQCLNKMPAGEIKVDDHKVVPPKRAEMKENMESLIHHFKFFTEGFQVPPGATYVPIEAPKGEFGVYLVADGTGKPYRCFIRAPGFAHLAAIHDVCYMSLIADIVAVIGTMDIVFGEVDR
In short: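 Mitochondria from liquid-cultured adults were freeze-thawed thrice before the 15-min DCIP-coupled NADH oxidation read.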

in vitro = details: human
L1 wild-type C. elegans = details: […]; for Screen "Hit": hit = relative motility below 0.25 3 hours after removal of KCN; for KCN survival assay value relative to DMSO control, Mean: mean of replicates
[2] = in vitro complex I dose response on C. elegans mitochondria, average of at least two biological replicates, fit in R (DRC), read-out: IC50 C. elegans complex I
[3] = wild-type (N2) mitochondria, read-out: C. elegans Complex I IC50
[4] = wild-type C. elegans mitochondria, estimated from fitted dose-response curves, read-out: C. elegans Complex I IC50

Cc1nc2ccccc2n1Cc1ccc(Cl)cc1 [STK697993]
remaining activity at 0.0001 µM ([1]; C. elegans mitochondria, 0.0001 µM, Mean, read-out: in vitro complex I activity relative to solvent control): 93.5%
remaining activity at 0.0001 µM ([1]; C. elegans mitochondria, 0.0001 µM, single replicate, read-out: in vitro complex I activity relative to solvent control): 90.1%
remaining activity at 0.0005 µM ([1]; C. elegans mitochondria, 0.0005 µM, Mean, read-out: in vitro complex I activity relative to solvent control): 93.4%
remaining activity at 0.0005 µM ([1]; C. elegans mitochondria, 0.0005 µM, single replicate, read-out: in vitro complex I activity relative to solvent control): 89.1%
remaining activity at 0.001 µM ([1]; C. elegans mitochondria, 0.001 µM, Mean, read-out: in vitro complex I activity relative to solvent control): 92.2%
remaining activity at 0.0025 µM ([1]; C. elegans mitochondria, 0.0025 µM, Mean, read-out: in vitro complex I activity relative to solvent control): 89.9%
remaining activity at 0.005 µM ([1]; C. elegans mitochondria, 0.005 µM, Mean, read-out: in vitro complex I activity relative to solvent control): 93.8%
remaining activity at 0.013 µM ([1]; C. elegans mitochondria, 0.013 µM, Mean, read-out: in vitro complex I activity relative to solvent control): 89.4%
remaining activity at 0.025 µM ([1]; C. elegans mitochondria, 0.025 µM, Mean, read-out: in vitro complex I activity relative to solvent control): 79.6%
remaining activity at 0.025 µM ([1]; C. elegans mitochondria, 0.025 µM, single replicate, read-out: in vitro complex I activity relative to solvent control): 81.1%
remaining activity at 0.063 µM ([1]; C. elegans mitochondria, 0.063 µM, Mean, read-out: in vitro complex I activity relative to solvent control): 59.3%
remaining activity at 0.063 µM ([1]; C. elegans mitochondria, 0.063 µM, single replicate, read-out: in vitro complex I activity relative to solvent control): 58.9%
remaining activity at 0.125 µM ([1]; C. elegans mitochondria, 0.125 µM, Mean, read-out: in vitro complex I activity relative to solvent control): 46.1%
remaining activity at 0.125 µM ([1]; C. elegans mitochondria, 0.125 µM, single replicate, read-out: in vitro complex I activity relative to solvent control): 47%
remaining activity at 0.313 µM ([1]; C. elegans mitochondria, 0.313 µM, Mean, read-out: in vitro complex I activity relative to solvent control): 24.1%
remaining activity at 0.313 µM ([1]; C. elegans mitochondria, 0.313 µM, single replicate, read-out: in vitro complex I activity relative to solvent control): 23.6%
remaining activity at 0.625 µM ([1]; C. elegans mitochondria, 0.625 µM, Mean, read-out: in vitro complex I activity relative to solvent control): 15.5%
remaining activity at 0.625 µM ([1]; C. elegans mitochondria, 0.625 µM, single replicate, read-out: in vitro complex I activity relative to solvent control): 16.8%
remaining activity at 1.5 µM ([1]; C. elegans mitochondria, 1.5 µM, Mean, read-out: in vitro complex I activity relative to solvent control): 6.88%
remaining activity at 3 µM ([1]; C. elegans mitochondria, 3 µM, Mean, read-out: in vitro complex I activity relative to solvent control): 4.54%
remaining activity at 15 µM ([1]; C. elegans mitochondria, 15 µM, Mean, read-out: in vitro complex I activity relative to solvent control): 3.15%
remaining activity at 37.5 µM ([1]; C. elegans mitochondria, 37.5 µM, Mean, read-out: in vitro complex I activity relative to solvent control): 1.66%
remaining activity at 75 µM ([1]; C. elegans mitochondria, 75 µM, Mean, read-out: in vitro complex I activity relative to solvent control): 1.29%
remaining activity at 0.0001 µM ([1]; dose 0.0001 µM, wild-type C. elegans, mean of replicates, read-out: in vitro complex I activity relative to solvent control, Mean): 93.5%
in vitro complex I activity relative to solvent control, individual replicate ([1]; dose 0.0001 µM, wild-type C. elegans, single replicate): 99.582% and 83.147% and 101.146%
remaining activity at 0.0001 µM ([1]; dose 0.0001 µM, wild-type C. elegans, single replicate, read-out: in vitro complex I activity relative to solvent control, individual replicate): 90.1%
remaining activity at 0.0005 µM ([1]; dose 0.0005 µM, wild-type C. elegans, mean of replicates, read-out: in vitro complex I activity relative to solvent control, Mean): 93.4%
in vitro complex I activity relative to solvent control, individual replicate ([1]; dose 0.0005 µM, wild-type C. elegans, single replicate): 96.982% and 84.926% and 102.628%
remaining activity at 0.0005 µM ([1]; dose 0.0005 µM, wild-type C. elegans, single replicate, read-out: in vitro complex I activity relative to solvent control, individual replicate): 89.1%
remaining activity at 0.001 µM ([1]; dose 0.001 µM, wild-type C. elegans, mean of replicates, read-out: in vitro complex I activity relative to solvent control, Mean): 92.2%
in vitro complex I activity relative to solvent control, individual replicate ([1]; dose 0.001 µM, wild-type C. elegans, single replicate): 93.635% and 85.360% and 84.052% and 105.930%
remaining activity at 0.0025 µM ([1]; dose 0.0025 µM, wild-type C. elegans, mean of replicates, read-out: in vitro complex I activity relative to solvent control, Mean): 89.9%
in vitro complex I activity relative to solvent control, individual replicate ([1]; dose 0.0025 µM, wild-type C. elegans, single replicate): 94.908% and 85.958% and 78.987% and 99.629%
remaining activity at 0.005 µM ([1]; dose 0.005 µM, wild-type C. elegans, mean of replicates, read-out: in vitro complex I activity relative to solvent control, Mean): 93.8%
in vitro complex I activity relative to solvent control, individual replicate ([1]; dose 0.005 µM, wild-type C. elegans, single replicate): 110.821% and 90.887% and 82.153% and 91.307%
remaining activity at 0.013 µM ([1]; dose 0.013 µM, wild-type C. elegans, mean of replicates, read-out: in vitro complex I activity relative to solvent control, Mean): 89.4%
in vitro complex I activity relative to solvent control, individual replicate ([1]; dose 0.013 µM, wild-type C. elegans, single replicate): 104.424% and 80.938% and 77.600% and 94.576%
remaining activity at 0.025 µM ([1]; dose 0.025 µM, wild-type C. elegans, mean of replicates, read-out: in vitro complex I activity relative to solvent control, Mean): 79.6%
in vitro complex I activity relative to solvent control, individual replicate ([1]; dose 0.025 µM, wild-type C. elegans, single replicate): 79.265% and 72.113% and 85.782%
remaining activity at 0.025 µM ([1]; dose 0.025 µM, wild-type C. elegans, single replicate, read-out: in vitro complex I activity relative to solvent control, individual replicate): 81.1%
remaining activity at 0.063 µM ([1]; dose 0.063 µM, wild-type C. elegans, mean of replicates, read-out: in vitro complex I activity relative to solvent control, Mean): 59.3%
in vitro complex I activity relative to solvent control, individual replicate ([1]; dose 0.063 µM, wild-type C. elegans, single replicate): 58.500% and 52.939% and 67.015%
remaining activity at 0.063 µM ([1]; dose 0.063 µM, wild-type C. elegans, single replicate, read-out: in vitro complex I activity relative to solvent control, individual replicate): 58.9%
remaining activity at 0.125 µM ([1]; dose 0.125 µM, wild-type C. elegans, mean of replicates, read-out: in vitro complex I activity relative to solvent control, Mean): 46.1%
in vitro complex I activity relative to solvent control, individual replicate ([1]; dose 0.125 µM, wild-type C. elegans, single replicate): 44.996% and 42.086% and 50.202%
remaining activity at 0.125 µM ([1]; dose 0.125 µM, wild-type C. elegans, single replicate, read-out: in vitro complex I activity relative to solvent control, individual replicate): 47%
remaining activity at 0.313 µM ([1]; dose 0.313 µM, wild-type C. elegans, mean of replicates, read-out: in vitro complex I activity relative to solvent control, Mean): 24.1%
in vitro complex I activity relative to solvent control, individual replicate ([1]; dose 0.313 µM, wild-type C. elegans, single replicate): 25.635% and 20.651% and 26.550%
remaining activity at 0.313 µM ([1]; dose 0.313 µM, wild-type C. elegans, single replicate, read-out: in vitro complex I activity relative to solvent control, individual replicate): 23.6%
remaining activity at 0.625 µM ([1]; dose 0.625 µM, wild-type C. elegans, mean of replicates, read-out: in vitro complex I activity relative to solvent control, Mean): 15.5%
in vitro complex I activity relative to solvent control, individual replicate ([1]; dose 0.625 µM, wild-type C. elegans, single replicate): 15.276% and 17.385% and 12.484%
remaining activity at 0.625 µM ([1]; dose 0.625 µM, wild-type C. elegans, single replicate, read-out: in vitro complex I activity relative to solvent control, individual replicate): 16.8%
remaining activity at 1.5 µM ([1]; dose 1.5 µM, wild-type C. elegans, mean of replicates, read-out: in vitro complex I activity relative to solvent control, Mean): 6.88%
in vitro complex I activity relative to solvent control, individual replicate ([1]; dose 1.5 µM, wild-type C. elegans, single replicate): 4.958% and 1.160% and 6.055% and 15.327%
remaining activity at 3 µM ([1]; dose 3 µM, wild-type C. elegans, mean of replicates, read-out: in vitro complex I activity relative to solvent control, Mean): 4.54%
in vitro complex I activity relative to solvent control, individual replicate ([1]; dose 3 µM, wild-type C. elegans, single replicate): 0.589% and 7.541% and 4.494% and 5.523%
remaining activity at 15 µM ([1]; dose 15 µM, wild-type C. elegans, mean of replicates, read-out: in vitro complex I activity relative to solvent control, Mean): 3.15%
in vitro complex I activity relative to solvent control, individual replicate ([1]; dose 15 µM, wild-type C. elegans, single replicate): 6.941% and 0.000% and 2.528% and 3.137%
remaining activity at 37.5 µM ([1]; dose 37.5 µM, wild-type C. elegans, mean of replicates, read-out: in vitro complex I activity relative to solvent control, Mean): 1.66%
in vitro complex I activity relative to solvent control, individual replicate ([1]; dose 37.5 µM, wild-type C. elegans, single replicate): 3.595% and 0.000% and 3.039%
remaining activity at 75 µM ([1]; dose 75 µM, wild-type C. elegans, mean of replicates, read-out: in vitro complex I activity relative to solvent control, Mean): 1.29%
in vitro complex I activity relative to solvent control, individual replicate ([1]; dose 75 µM, wild-type C. elegans, single replicate): 0.000% and 3.223% and 1.928%
IC50 [1, 2]: 0.11 µM
Log IC50 C. elegans complex I ([1]; C. elegans mitochondria): -0.96 µM
IC50 [1, 3]: 0.11 µM
IC50 ([1]; wild-type (N2) mitochondria, read-out: C. elegans complex I IC50): 0.112 µM
IC50 [1, 4]: 0.11 µM
CC50 at 2 days (in vitro; HEK293 Cell Viability Assay LC50): > 100 µM
Screen "Hit" (L1 wild-type C. elegans; 50 μM compound): Y (hits were identified as compounds that reduced relative motility below 0.25 (75% reduction))
Relative Motility (L1 wild-type C. elegans; 50 μM compound, worm motility 3 hours after removal of KCN, relative to DMSO controls, single biological replicate): 0.000
KCN survival assay value relative to DMSO control, Mean (L1 wild-type C. elegans; dose 3.1 µM): 1.037
KCN survival assay value relative to DMSO control, Mean (L1 wild-type C. elegans; dose 6.3 µM): 1.001
KCN survival assay value relative to DMSO control, Mean (L1 wild-type C. elegans; dose 12.5 µM): 0.717
KCN survival assay value relative to DMSO control, Mean (L1 wild-type C. elegans; dose 25 µM): 0.059
KCN survival assay value relative to DMSO control, Mean (L1 wild-type C. elegans; dose 50 µM): 0.046

CCn1c(C(C)c2ccc(CC(C)C)cc2)nc2ccccc21 (stereo not drawn) [STK951902]
IC50 [1, 2]: 1.83 µM
Log IC50 C. elegans complex I ([1]; C. elegans mitochondria): 0.26 µM
IC50 [1, 3]: 1.83 µM
IC50 [1, 4]: 1.83 µM
CC50 at 2 days (in vitro; HEK293 Cell Viability Assay LC50, HEK293 cells, estimated from fitted dose-response curves, mean of at least two biological replicates): 31.7 µM
Screen "Hit" (L1 wild-type C. elegans; 50 μM compound): Y (hits were identified as compounds that reduced relative motility below 0.25 (75% reduction))
